Experimental data published in patent US20260138958A1, “SUBSTITUTED N-PHENYLURACILS AND SALTS THEREOF, AND USE THEREOF AS HERBICIDAL ACTIVE SUBSTANCES” (Bayer Aktiengesellschaft, priority 2022, published 2026).

What was measured:
Type in all cases: in vivo
[1] = system: Triticum aestivum (TRZAS); experiment: Post-emergence crop plant compatibility, greenhouse pot test; details: Triticum aestivum, in vivo
Experimental: (§1) Seeds of monocotyledonous and dicotyledonous weeds and crop plants were placed in sandy loam in plastic or wood-fibre pots, covered with soil and cultivated in a greenhouse under controlled growth conditions. 2 to 3 weeks after sowing, the test plants were treated at the one-leaf stage. The compounds of the invention, formulated in the form of wettable powders (WP) or as emulsion concentrates (EC), were then sprayed onto the green parts of the plants as aqueous suspension or emulsion with addition of 0.5% additive at a water application rate of 600 l/ha (converted). After the test plants had been kept in the greenhouse under optimum growth conditions for about 3 weeks, the activity of the preparations was rated visually in comparison to untreated controls. For example, 100% activity=the plants have died, 0% activity=like control plants.
(§2) The observed effects on selected crop plants are reported here in comparison to the untreated controls (values in %).

Zea mays (ZEAMX) = experiment: as above; details: Zea mays, in vivo
Experimental: as §1, §2

Setaria viridis (SETVI) = experiment: Post-emergence herbicidal action, greenhouse pot test; details: for pest or weed control at 5 g/ha / pest or weed control at 20 g/ha: Setaria viridis, 504 h; for pest or weed control at 5 g/ha: read-out: Post-emergence effect at 5 g/ha against SETVI in %; for pest or weed control at 20 g/ha: read-out: Post-emergence effect at 20 g/ha against SETVI in %
Experimental: as §1

[2] = system: Polygonum convolvulus (POLCO); experiment: as above; details: for pest or weed control at 5 g/ha / pest or weed control at 20 g/ha: Fallopia convolvulus, 504 h; for pest or weed control at 5 g/ha: read-out: Post-emergence effect at 5 g/ha against POLCO in %; for pest or weed control at 20 g/ha: read-out: Post-emergence effect at 20 g/ha against POLCO in %
Experimental: as §1

[3] = system: Abutilon theophrasti (ABUTH); experiment: as above; details: for pest or weed control at 5 g/ha / pest or weed control at 20 g/ha: Abutilon theophrasti, 504 h; for pest or weed control at 5 g/ha: read-out: Post-emergence effect at 5 g/ha against ABUTH in %; for pest or weed control at 20 g/ha: read-out: Post-emergence effect at 20 g/ha against ABUTH in %
Experimental: as §1

Bassia scoparia (KCHSC) = experiment: as above
Experimental: as §1

[4] = system: Echinochloa crus-galli (ECHCG); experiment: as above; details: for pest or weed control at 20 g/ha: Echinochloa crus-galli, 504 h, read-out: Post-emergence effect at 20 g/ha against ECHCG in %
Experimental: as §1

[5] = system: Tripleurospermum inodorum (MATIN); experiment: as above; details: for pest or weed control at 20 g/ha: Tripleurospermum inodorum, 504 h, read-out: Post-emergence effect at 20 g/ha against MATIN in %
Experimental: as §1

Lolium rigidum (LOLRI) = experiment: as above
Experimental: as §1

Veronica persica (VERPE) = experiment: as above; details: for pest or weed control at 5 g/ha / pest or weed control at 20 g/ha: Veronica persica, 504 h; for pest or weed control at 5 g/ha: read-out: Post-emergence effect at 5 g/ha against VERPE in %; for pest or weed control at 20 g/ha: read-out: Post-emergence effect at 20 g/ha against VERPE in %
Experimental: as §1

Viola tricolor (VIOTR) = experiment: as above; details: for pest or weed control at 20 g/ha: Viola tricolor, 504 h, read-out: Post-emergence effect at 20 g/ha against VIOTR in %
Experimental: as §1

[6] = system: Digitaria sanguinalis (DIGSA); experiment: as above
Experimental: as §1

[7] = system: Amaranthus retroflexus (AMARE); experiment: as above; details: Amaranthus retroflexus, 504 h; for pest or weed control at 1.25 g/ha: read-out: Post-emergence effect at 1.25 g/ha against AMARE in %; for pest or weed control at 5 g/ha: read-out: Post-emergence effect at 5 g/ha against AMARE in %; for pest or weed control at 20 g/ha: read-out: Post-emergence effect at 20 g/ha against AMARE in %
Experimental: as §1

[8] = system: Alopecurus myosuroides (ALOMY); experiment: as above; details: for pest or weed control at 20 g/ha: Alopecurus myosuroides, 504 h, read-out: Post-emergence effect at 20 g/ha against ALOMY in %
Experimental: as §1

[9] = system: Pharbitis purpurea (PHBPU); experiment: as above; details: Ipomoea purpurea, 504 h; for pest or weed control at 5 g/ha: read-out: Post-emergence effect at 5 g/ha against PHBPU in %; for pest or weed control at 20 g/ha: read-out: Post-emergence effect at 20 g/ha against PHBPU in %
Experimental: as §1

Oryza sativa (ORYSA) = experiment: Post-emergence crop plant compatibility, greenhouse pot test; details: Oryza sativa, in vivo
Experimental: as §1, §2

`Cn1c(C(F)(F)F)cc(=O)n(-c2cc(Oc3ccccc3OCC(=O)OCC3CC34CC4)c(Cl)cc2F)c1=O` (centres unmarked) [I.7-18, Spiro[2.2]pentan-1-ylmethyl (2-{2-chloro-4-fluoro-5-[3-methyl-2,6-dioxo-4-(trifluoromethyl)-3,6-dihydropyrimidin-1(2H)-yl]phenoxy}phenoxy)acetate] was tested, and the “Post-emergence effect at 1.25 g/ha against TRZAS in %” value [1] was 10%, the “Post-emergence effect at 1.25 g/ha against ZEAMX in %” value (Zea mays (ZEAMX)) was 20% and the pest or weed control at 5 g/ha (Setaria viridis (SETVI)) was 100%. For the same molecule, the pest or weed control at 20 g/ha (Setaria viridis (SETVI)) was 100%, the “Post-emergence effect at 1.25 g/ha against POLCO in %” value ([2]; 1.25 g/ha) was 100% and the pest or weed control at 5 g/ha [2] was 100%. For the same molecule, the pest or weed control at 20 g/ha [2] was 100%, the “Post-emergence effect at 1.25 g/ha against ABUTH in %” value [3] was 100% and the pest or weed control at 5 g/ha [3] was 100%. The pest or weed control at 20 g/ha [3] was 100%, the “Post-emergence effect at 1.25 g/ha against KCHSC in %” value (Bassia scoparia (KCHSC); 1.25 g/ha) was 100% and the “Post-emergence effect at 5 g/ha against KCHSC in %” value (Bassia scoparia (KCHSC); 5 g/ha) was 100%. The “Post-emergence effect at 20 g/ha against KCHSC in %” value (Bassia scoparia (KCHSC); 20 g/ha) was 100%, the “Post-emergence effect at 5 g/ha against ECHCG in %” value [4] was 100% and the pest or weed control at 20 g/ha [4] was 100%. For the same molecule, the pest or weed control at 20 g/ha [5] was 100%, the “Post-emergence effect at 20 g/ha against LOLRI in %” value (Lolium rigidum (LOLRI)) was 100% and the “Post-emergence effect at 1.25 g/ha against VERPE in %” value (Veronica persica (VERPE); 1.25 g/ha) was 80%. For the same molecule, the pest or weed control at 5 g/ha (Veronica persica (VERPE)) was 100%, the pest or weed control at 20 g/ha (Veronica persica (VERPE)) was 100% and the “Post-emergence effect at 1.25 g/ha against VIOTR in %” value (Viola tricolor (VIOTR)) was 100%. For the same molecule, the “Post-emergence effect at 5 g/ha against VIOTR in %” value (Viola tricolor (VIOTR)) was 100%, the pest or weed control at 20 g/ha (Viola tricolor (VIOTR)) was 100% and the “Post-emergence effect at 1.25 g/ha against DIGSA in %” value ([6]; 1.25 g/ha) was 100%. The “Post-emergence effect at 5 g/ha against DIGSA in %” value ([6]; 5 g/ha) was 100%, the “Post-emergence effect at 20 g/ha against DIGSA in %” value ([6]; 20 g/ha) was 100% and the pest or weed control at 1.25 g/ha [7] was 100%. The pest or weed control at 5 g/ha [7] was 100%, the pest or weed control at 20 g/ha [7] was 100% and the “Post-emergence effect at 5 g/ha against ALOMY in %” value [8] was 80%. It also gave a pest or weed control at 20 g/ha [8] of 100%, a pest or weed control at 5 g/ha [9] of 100% and a pest or weed control at 20 g/ha [9] of 100%.

In the case of `Cn1c(C(F)(F)F)cc(=O)n(-c2cc(Oc3ccccc3OCC(=O)OCC3CC3)c(C#N)cc2F)c1=O` [I.9-1, Cyclopropylmethyl (2-{2-cyano-4-fluoro-5-[3-methyl-2,6-dioxo-4-(trifluoromethyl)-3,6-dihydropyrimidin-1(2H)-yl]phenoxy}phenoxy)acetate], the “Post-emergence effect at 1.25 g/ha against TRZAS in %” value [1] is reported as 0%, the “Post-emergence effect at 20 g/ha against TRZAS in %” value [1] is reported as 20% and the “Post-emergence effect at 1.25 g/ha against ORYSA in %” value (Oryza sativa (ORYSA)) is reported as 0%. For the same molecule, the “Post-emergence effect at 5 g/ha against ORYSA in %” value (Oryza sativa (ORYSA)) was 0%, the “Post-emergence effect at 20 g/ha against ORYSA in %” value (Oryza sativa (ORYSA)) was 0% and the “Post-emergence effect at 1.25 g/ha against ZEAMX in %” value (Zea mays (ZEAMX)) was 10%. For the same molecule, the “Post-emergence effect at 5 g/ha against ZEAMX in %” value (Zea mays (ZEAMX)) was 20%, the “Post-emergence effect at 1.25 g/ha against SETVI in %” value (Setaria viridis (SETVI); 1.25 g/ha) was 80% and the pest or weed control at 5 g/ha (Setaria viridis (SETVI)) was 100%. The pest or weed control at 20 g/ha (Setaria viridis (SETVI)) was 100%, the pest or weed control at 5 g/ha [2] was 80% and the pest or weed control at 20 g/ha [2] was 100%. The “Post-emergence effect at 1.25 g/ha against ABUTH in %” value [3] was 100%, the pest or weed control at 5 g/ha [3] was 100% and the pest or weed control at 20 g/ha [3] was 100%. The “Post-emergence effect at 1.25 g/ha against ECHCG in %” value ([4]; 1.25 g/ha) was 80%, the “Post-emergence effect at 5 g/ha against ECHCG in %” value [4] was 100% and the pest or weed control at 20 g/ha [4] was 100%. The “Post-emergence effect at 5 g/ha against MATIN in %” value ([5]; 5 g/ha) was 80%, the pest or weed control at 20 g/ha [5] was 80% and the pest or weed control at 5 g/ha (Veronica persica (VERPE)) was 100%. For the same molecule, the pest or weed control at 20 g/ha (Veronica persica (VERPE)) was 100%, the “Post-emergence effect at 1.25 g/ha against VIOTR in %” value (Viola tricolor (VIOTR)) was 100% and the “Post-emergence effect at 5 g/ha against VIOTR in %” value (Viola tricolor (VIOTR)) was 100%. It also gave a pest or weed control at 20 g/ha (Viola tricolor (VIOTR)) of 100%, a pest or weed control at 1.25 g/ha [7] of 100% and a pest or weed control at 5 g/ha [7] of 100%. For the same molecule, the pest or weed control at 20 g/ha [7] was 100%, the “Post-emergence effect at 5 g/ha against ALOMY in %” value [8] was 100% and the pest or weed control at 20 g/ha [8] was 100%. It also gave a pest or weed control at 5 g/ha [9] of 100% and a pest or weed control at 20 g/ha [9] of 100%.
